Assay results published in ChEMBL document CHEMBL1201862, “PubChem BioAssay data set” (2004).
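Assay format: 96-well plates, 48-hour exposure. At the GI50, growth is halved.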 The source made the active and inactive calls. Rule as the data show it: active = GI50 up to about 1.1 µM and inactive = higher.

How the values were obtained:
Assay in all cases: inhibition of tumour cell growth, NCI panel, 48 h
[1] = tested on: SR
[2] = tested on: CCRF-CEM
[3] = tested on: CAKI-1
[4] = tested on: NCI-H23
[5] = tested on: EKVX
[6] = tested on: UO-31
[7] = tested on: SK-OV-3
[8] = tested on: HOP-62
[9] = tested on: UACC-62
[10] = tested on: OVCAR-8
[11] = tested on: A498
[12] = tested on: MCF7
[13] = tested on: IGROV-1
[14] = tested on: MDA-MB-231
[15] = tested on: SF-295
[16] = tested on: UACC-257
[17] = tested on: M14
[18] = tested on: RPMI-8226
[19] = tested on: SF-539
[20] = tested on: NCI/ADR-RES
[21] = tested on: SF-268
[22] = tested on: SN12C
[23] = tested on: SK-MEL-5
[24] = tested on: K562
[25] = tested on: Hs-578T
[26] = tested on: RXF 393
[27] = tested on: TK-10
[28] = tested on: 786-0
[29] = tested on: SNB-75
[30] = tested on: HCC 2998
[31] = tested on: Malme-3M
[32] = tested on: NCI-H460
[33] = tested on: U-251
[34] = tested on: HT-29
[35] = tested on: NCI-H522
[36] = tested on: OVCAR-4
[37] = tested on: DU-145
[38] = tested on: HCT-116
[39] = tested on: SW-620
[40] = tested on: HL-60
[41] = tested on: SK-MEL-28
[42] = tested on: BT-549
[43] = tested on: LOX IMVI
[44] = tested on: SNB-19
[45] = tested on: OVCAR-5
[46] = tested on: HOP-92
[47] = tested on: T47D
[48] = tested on: OVCAR-3
[49] = tested on: MOLT-4
[50] = tested on: MDA-MB-435
[51] = tested on: ACHN
[52] = tested on: KM12
[53] = tested on: MDA-N
[54] = tested on: COLO 205
[55] = tested on: NCI-H226
[56] = tested on: A549
[57] = tested on: PC-3
[58] = tested on: HCT-15
[59] = tested on: SK-MEL-2

**Q.** Which results are given for `O=C(O)c1cc(O)c2c(c1)C([C@@H]1c3cccc(O)c3C(=O)c3c(O)cc(C(=O)O)cc31)c1cccc(O)c1C2=O` (some centres undefined)?
**A.** GI50 [1]: 39.3 µM (inactive); GI50 [2]: 30.5 µM (inactive); GI50 [3]: > 100 µM (inactive); GI50 [4]: 30.4 µM (inactive); GI50 [5]: 37.2 µM (inactive); GI50 [6]: > 100 µM (inactive); GI50 [7]: > 100 µM (inactive); GI50 [8]: > 10 µM (inactive); GI50 [9]: 31 µM (inactive); GI50 [10]: 33.4 µM (inactive); GI50 [11]: 22.7 µM (inactive); GI50 [12]: 37 µM (inactive); GI50 [13]: 22.9 µM (inactive); GI50 [14]: 23.5 µM (inactive); GI50 [15]: 34.7 µM (inactive); GI50 [16]: 35.5 µM (inactive); GI50 [17]: > 10 µM (inactive); GI50 [18]: 32.9 µM (inactive); GI50 [19]: 19.5 µM (inactive); GI50 [20]: 43.8 µM (inactive); GI50 [21]: 31.4 µM (inactive); GI50 [22]: 34.7 µM (inactive); GI50 [23]: 17.6 µM (inactive); GI50 [24]: 23.8 µM (inactive); GI50 [25]: 24.9 µM (inactive); GI50 [26]: 28.2 µM (inactive); GI50 [27]: 99.1 µM (inactive); GI50 [28]: 51.5 µM (inactive); GI50 [29]: 25.3 µM (inactive); GI50 [30]: 47.4 µM (inactive); GI50 [31]: 23.7 µM (inactive); GI50 [32]: > 100 µM (inactive); GI50 [33]: 25.4 µM (inactive); GI50 [34]: 96.2 µM (inactive); GI50 [35]: 19.7 µM (inactive); GI50 [36]: > 100 µM (inactive); GI50 [37]: > 100 µM (inactive); GI50 [38]: 20.4 µM (inactive); GI50 [39]: 35.4 µM (inactive); GI50 [40]: 29.9 µM (inactive); GI50 [41]: 33.2 µM (inactive); GI50 [42]: 51.1 µM (inactive); GI50 [43]: 15.8 µM (inactive); GI50 [44]: 57 µM (inactive); GI50 [45]: > 100 µM (inactive); GI50 [46]: 23.2 µM (inactive); GI50 [47]: 59.6 µM (inactive); GI50 [48]: 66.5 µM (inactive); GI50 [49]: 20.7 µM (inactive); GI50 [50]: 24.6 µM (inactive); GI50 [51]: 81.5 µM (inactive); GI50 [52]: 20.5 µM (inactive); GI50 [53]: 20.3 µM (inactive); GI50 [54]: > 100 µM (inactive); GI50 [55]: 33.7 µM (inactive); GI50 [56]: > 100 µM (inactive); GI50 [57]: 36.1 µM (inactive)

**Q.** What does the source list for `COC(=O)c1ccccc1NC(=O)/C(=N\NC(C)(C)C)C(C#N)c1nc(-c2ccc([N+](=O)[O-])cc2)cs1` (centres undefined)?
**A.** GI50 [1]: > 100 µM (inactive); GI50 [2]: > 100 µM (inactive); GI50 [3]: > 100 µM (inactive); GI50 [4]: > 100 µM (inactive); GI50 [5]: > 100 µM (inactive); GI50 [6]: > 100 µM (inactive); GI50 [7]: > 100 µM (inactive); GI50 [9]: > 100 µM (inactive); GI50 [10]: > 100 µM (inactive); GI50 [11]: > 100 µM (inactive); GI50 [12]: > 100 µM (inactive); GI50 [13]: > 100 µM (inactive); GI50 [14]: > 100 µM (inactive); GI50 [15]: > 100 µM (inactive); GI50 [16]: > 100 µM (inactive); GI50 [17]: > 100 µM (inactive); GI50 [18]: > 100 µM (inactive); GI50 [58]: > 100 µM; GI50 [19]: > 100 µM (inactive); GI50 [20]: > 100 µM (inactive); GI50 [21]: > 100 µM (inactive); GI50 [22]: > 100 µM (inactive); GI50 [23]: > 100 µM (inactive); GI50 [24]: > 100 µM (inactive); GI50 [25]: > 100 µM (inactive); GI50 [26]: > 100 µM (inactive); GI50 [28]: > 100 µM (inactive); GI50 [29]: > 100 µM (inactive); GI50 [30]: > 100 µM (inactive); GI50 [31]: > 100 µM (inactive); GI50 [32]: > 100 µM (inactive); GI50 [33]: > 100 µM (inactive); GI50 [34]: > 100 µM (inactive); GI50 [35]: > 10 µM (inactive); GI50 [36]: > 100 µM (inactive); GI50 [37]: > 100 µM (inactive); GI50 [38]: > 100 µM (inactive); GI50 [39]: > 100 µM (inactive); GI50 [40]: > 100 µM (inactive); GI50 [41]: > 100 µM (inactive); GI50 [42]: > 100 µM (inactive); GI50 [43]: > 100 µM (inactive); GI50 [44]: > 100 µM (inactive); GI50 [45]: > 100 µM (inactive); GI50 [46]: > 100 µM (inactive); GI50 [47]: > 100 µM (inactive); GI50 [59]: > 100 µM (inactive); GI50 [48]: > 100 µM (inactive); GI50 [49]: > 100 µM (inactive); GI50 [50]: > 100 µM (inactive); GI50 [51]: > 100 µM (inactive); GI50 [52]: > 100 µM (inactive); GI50 [53]: > 100 µM (inactive); GI50 [54]: > 100 µM (inactive); GI50 [55]: > 100 µM (inactive); GI50 [56]: > 100 µM (inactive); GI50 [57]: > 100 µM (inactive)
